≈ marks a conversion by molar mass, not a printed value.
Settings: buffer; pH 7.4; 200.0 µM

| Compound | solubility kinetic |
| --- | --- |
| CCOC(=O)C1CCN(c2ncnc3c(C)csc23)CC1 | 0.0378 mg/mL (≈ 124 µM) |
| COc1ccc(C(=O)O/N=C(\N)Cc2ccc([N+](=O)[O-])cc2)c(OC)c1 | 0.0393 mg/mL (≈ 109 µM) |
| Cc1ccc(NC(=S)NCCC2=CCCCC2)cc1 | 0.0006 mg/mL (≈ 2.19 µM) |
| Cc1c(C(=O)NC(C)C2CC3CCC2C3)cccc1[N+](=O)[O-] (centres undefined) | 0.0343 mg/mL (≈ 113 µM) |
| CC(=Nc1ccc2c(c1)CCC2)c1c(O)n(-c2ccccc2)c(=O)[nH]c1=O | < 0.0003 mg/mL |
| CC(O)c1ccc(Oc2cnccn2)cc1 (centres undefined) | > 0.0324 mg/mL |
| O=C(Nc1nc(-c2ccc(F)cc2)cs1)c1cccnc1 | 0.0006 mg/mL (≈ 2 µM) |
| Cc1ccc(C(=O)Nc2ccc(C)c(S(=O)(=O)N3CCOCC3)c2)c(C)c1 | 0.0379 mg/mL (≈ 97.6 µM) |
| COc1cc(NC(=O)c2ccc(S(=O)(=O)N(C)c3ccccc3OC)cc2)cc(OC)c1 | 0.0045 mg/mL (≈ 9.86 µM) |
| CC(=O)N[C@@H](Cc1c[nH]c2ccccc12)C(=O)NC1CC1 | > 0.0428 mg/mL |
| O=C(O)C1C2CCC(O2)C1C(=O)Nc1ccc(OC(F)F)cc1 (centres undefined) | 0.0443 mg/mL (≈ 135 µM) |
| COc1cc(OC)c(C(=O)O/N=C(\N)c2ccccn2)cc1OC | > 0.0497 mg/mL |
| CC(Sc1nccn1C)C(=O)NC1(C#N)CCCCC1 (centres undefined) | > 0.0439 mg/mL |
| Cn1c(C(=O)N2CCN(c3ccccc3)CC2)cc2cc(Cl)ccc21 | 0.0044 mg/mL (≈ 12.4 µM) |
| N#C/C(=C\c1ccccc1)C(=O)N1CCC(C(N)=O)CC1 | 0.0401 mg/mL (≈ 142 µM) |
| O=C(NC(=S)NCCO)c1sc2ccccc2c1Cl | 0.0018 mg/mL (≈ 5.72 µM) |
| CC(=O)N(C)Cc1ccc(C(=O)CSc2nnc(C3CC3)n2C2CC2)cc1 | > 0.0577 mg/mL |
| CCOC(=O)CC1COCCN1Cc1cn(C)nc1-c1ccccc1F (centres undefined) | > 0.0542 mg/mL |
| CCN(CC)C1=C(Cl)C(=O)C(Cl)C12OCCO2 (centres undefined) | > 0.042 mg/mL |
| Cc1c(-c2ccncc2)oc2ccc(Br)cc2c1=O | < 0.0007 mg/mL |
| CCN(CC(=O)Nc1ccc(OC(F)F)cc1)C1CCCCC1 | 0.0331 mg/mL (≈ 101 µM) |
| O=[N+]([O-])c1cccc(-c2noc(-c3cccs3)n2)c1 | < 0.0002 mg/mL |
| N#CC1=C(N)Oc2nc[nH]c(=O)c2C1c1cccs1 (centres undefined) | > 0.0408 mg/mL |
| Cc1ccc(S(=O)(=O)N2CCC(C(=O)Nc3cccnc3)CC2)cc1 | > 0.0539 mg/mL |

| Compound | solubility kinetic |
| --- | --- |
| O=C(NC(O)C(=O)c1ccccc1)c1ccc(F)cc1 (centres undefined) | 0.0397 mg/mL (≈ 145 µM) |
| O=C(Nc1ccc(Nc2ccccc2)cc1)c1ccc(F)cc1 | 0.0007 mg/mL (≈ 2.29 µM) |
| Cc1ccccc1Nc1nc(-c2cccnc2)cs1 | 0.0112 mg/mL (≈ 41.9 µM) |
| O=C(O)COCC(=O)NCc1csc2ccc(Cl)cc12 | > 0.0471 mg/mL |
| O=[N+]([O-])c1cnc(Nc2ccccc2)nc1Nc1ccccc1 | 0.0002 mg/mL (≈ 0.651 µM) |
| COc1ccc(-c2csc(Nc3cccc(C)n3)n2)cc1C | 0.0034 mg/mL (≈ 10.9 µM) |
| CC1C(=O)N2CCCc3cc(NC(=O)COc4ccccc4)cc1c32 (centres undefined) | 0.0502 mg/mL (≈ 149 µM) |
| COc1ccccc1-n1ccnc1SCC(=O)NC(C)(C)C | 0.0439 mg/mL (≈ 137 µM) |
| O=C(NCCO)/C(=C\c1ccco1)NC(=O)c1ccco1 | 0.035 mg/mL (≈ 121 µM) |
| Fc1ccccc1OCCCn1ccnc1 | > 0.033 mg/mL |
| Cc1cc(=O)[nH]c(=O)n1Cc1ccccc1 | 0.0192 mg/mL (≈ 88.8 µM) |
| Fc1ccc(-c2c[nH]c(=S)n2Cc2ccccc2)cc1 | 0.0014 mg/mL (≈ 4.92 µM) |
| N#CC1(c2ccccc2)CCC(=O)N1Cc1ccccc1 (centres undefined) | > 0.0415 mg/mL |
| Cc1ccccc1Cn1c(C)cc(C)c(C#N)c1=O | 0.0081 mg/mL (≈ 32.1 µM) |
| Cc1ccccc1NS(=O)(=O)c1ccc2c(c1)oc(=O)n2C | 0.0023 mg/mL (≈ 7.22 µM) |
| S=C1NC2(CCCCCC2)N=C1c1ccccc1 | 0.0028 mg/mL (≈ 10.8 µM) |
| O=C(NC1(C(F)(F)F)N=C2SCCN2C1=O)c1ccccc1F (centres undefined) | 0.0505 mg/mL (≈ 145 µM) |
| Cc1ccc(O)c(NC(=O)C2CCCCC2)c1 | 0.0333 mg/mL (≈ 143 µM) |
| N#CCC(=O)Nc1ccc(C(=O)Nc2cccnc2)cc1 | > 0.042 mg/mL |
| CCc1ccccc1N1C(=O)[C@@H]2Cc3ccccc3CN2C1=O | 0.0431 mg/mL (≈ 141 µM) |
| C/C(=N/NC(=O)C(C)n1nc(C)c([N+](=O)[O-])c1C)c1ccc(OCC(N)=O)cc1 (centres undefined) | > 0.0604 mg/mL |
| COc1c(Cl)ccc(Cl)c1C(=O)NC(=S)N1CCOCC1 | > 0.0524 mg/mL |
| S=C(Nc1cccnc1)Nc1ccccc1Br | > 0.0462 mg/mL |
| CCC(=O)NCc1c(C)c(C)n(Cc2ccccc2)c1-n1cccc1 | 0.0046 mg/mL (≈ 13.7 µM) |

| Compound | solubility kinetic |
| --- | --- |
| Cc1nn(CCCC(=O)Nc2cccnc2)c(C)c1[N+](=O)[O-] | > 0.0455 mg/mL |
| COc1ccc(C(=O)COC(=O)c2ccccn2)c(OC)c1 | > 0.0452 mg/mL |
| CCOc1ccccc1CNC(c1ccccc1)c1ccccc1.Cl | 0.0014 mg/mL |
| CCNC(=O)COC(=O)c1[nH]c(C)c(C(=O)OC)c1C | > 0.0423 mg/mL |
| O=[N+]([O-])c1ccc(N2CCN(c3ccc(F)cc3)CC2)cc1 | 0.0003 mg/mL (≈ 0.996 µM) |
| O=C(NC1CCCC1)c1c(O)nc2sccn2c1=O | > 0.0419 mg/mL |
| O=C(O)C1Nc2ccc(Br)cc2C2C=CCC12 (centres undefined) | 0.0436 mg/mL (≈ 148 µM) |
| O=C1CC(N2CCOCC2)C(=O)N1c1ccc(Cl)cc1 (centres undefined) | > 0.0442 mg/mL |
| CCN1CCN(c2ccc(S(=O)(=O)N3CCOCC3)cc2NC(=O)c2cccc([N+](=O)[O-])c2)CC1 | > 0.0755 mg/mL |
| Cc1ccnc(NC2CCCCC2)c1 | 0.0253 mg/mL (≈ 133 µM) |
| CN(c1ccccc1)S(=O)(=O)c1cccc(C(=O)OCC(=O)Nc2ccc(C(N)=O)cc2)c1 | 0.0099 mg/mL (≈ 21.2 µM) |
| COc1ccc(Cl)cc1NC(=O)COC(=O)C1CCCCC1 | 0.0032 mg/mL (≈ 9.82 µM) |
| Cc1cc(C)cc(NC(=O)N(CCC#N)Cc2cccs2)c1 | 0.0048 mg/mL (≈ 15.3 µM) |
| COc1cc(Nc2ncnc(N)n2)cc(OC)c1OC | > 0.0416 mg/mL |
| Cc1ccc(NC(=O)c2c([N+](=O)[O-])cnn2C)cc1C | > 0.0411 mg/mL |
| CCOC(=O)C1CCCN(C(=O)COc2ccc(C(=O)c3ccc(F)cc3)cc2)C1 (centres undefined) | > 0.062 mg/mL |
| CC(C)COc1ccc(Br)cc1CNC(C)(C)C.Cl | 0.0507 mg/mL |
| Cc1cc(C(=O)Nc2ccc(N3CCOCC3)c(Cl)c2)c(C)o1 | 0.0456 mg/mL (≈ 136 µM) |
| O=S(=O)(Nc1ccccc1N1CCOCC1)c1ccccc1C(F)(F)F | 0.0073 mg/mL (≈ 18.9 µM) |
| CC(=O)c1cccc(NC(=O)CCNC(=O)c2ccccc2Cl)c1 | > 0.0517 mg/mL |
| N#C/C(=C\c1ccc([N+](=O)[O-])cc1)c1ccccn1 | 0.0047 mg/mL (≈ 18.7 µM) |
| CCOc1ccc(-n2c(C)c(C(C)=O)c3cc(OC(C)=O)ccc32)cc1 | < 0.0008 mg/mL |
| N#Cc1cc2ccccc2nc1N | > 0.0254 mg/mL |
| O=S(=O)(NCCOc1ccccc1F)c1ccc(Cl)cc1F | 0.0057 mg/mL (≈ 16.4 µM) |

| Compound | solubility kinetic |
| --- | --- |
| N#C/C(=C\c1cccnc1)C(=O)Nc1cccc(Cl)c1 | 0.01 mg/mL (≈ 35.2 µM) |
| c1csc(-c2nc(CN3CCSCC3)cs2)c1 | 0.0328 mg/mL (≈ 116 µM) |
| O=C(NCCC(=O)N1CCN(C(=O)c2ccco2)CC1)c1ccccc1Cl | > 0.0585 mg/mL |
| CN(C)S(=O)(=O)c1cccc(NC(=O)COc2ccc(S(=O)(=O)N3CCOCC3)cc2Cl)c1 | 0.0054 mg/mL (≈ 10.4 µM) |
| Cc1ccccc1OCC(=O)OCC(=O)NCc1ccccc1Cl | 0.0141 mg/mL (≈ 40.5 µM) |
| CC(=O)Nc1ccc(NC(=O)c2ccc(-c3ccccc3Cl)o2)cc1 | 0.0005 mg/mL (≈ 1.41 µM) |
| CCOC(=O)Cn1cc(C#N)c2ccccc21 | > 0.0342 mg/mL |
| O=C(CSc1ccccc1F)NC(=O)c1ccccc1Br | > 0.0552 mg/mL |
| Cc1cc(C)c(C(=O)COC(=O)c2cccnc2Cl)c(C)c1 | 0.0073 mg/mL (≈ 23 µM) |
| O=c1[nH]c2ccc(S(=O)(=O)Nc3ccc(Cl)cc3)cc2[nH]1 | 0.0022 mg/mL (≈ 6.8 µM) |
| C/C(=N\OCC(=O)NC(C)C)c1cccs1 | 0.0325 mg/mL (≈ 135 µM) |
| COc1cc(C(=O)NC(c2ccccc2)c2ccccc2)cc(OC)c1OC | < 0.0008 mg/mL |
| O=[N+]([O-])c1ccc(CNc2cccc(F)c2)s1 | 0.0176 mg/mL (≈ 69.8 µM) |
| Cc1cc(C)c(C#N)c(OCc2ccc(Cl)nc2)n1 | 0.0085 mg/mL (≈ 31.1 µM) |
| COc1ccc(OCCCC(=O)Nc2nc(C)c(C(C)=O)s2)cc1 | 0.0013 mg/mL (≈ 3.73 µM) |
| COc1ccc(C(=O)N/C(=C\c2ccc(SC)cc2)C(=O)NCCCn2ccnc2)cc1OC | 0.0123 mg/mL (≈ 25.6 µM) |
| O=C(CCC(=O)c1ccc(Br)cc1)Nc1ccc(F)cc1 | < 0.0007 mg/mL |
| CN(Cc1ccccc1)/C(=N/O)c1cccc(Cl)c1 | 0.0264 mg/mL (≈ 96.1 µM) |
| COc1cc(CN2CCN(c3ncccn3)CC2)cc(OC)c1 | > 0.0472 mg/mL |
| O=C(COC(=O)c1ccc2ccccc2n1)Nc1ccccc1F | 0.0089 mg/mL (≈ 27.4 µM) |
| CCCCn1c(SCC(=O)N2CCOCC2)nc2ccccc2c1=O | > 0.0542 mg/mL |
| COc1ccc(C(=O)CC(=O)C(=O)Nc2ccccc2)cc1 | 0.0346 mg/mL (≈ 116 µM) |
| CN(C(=O)COC(=O)Cn1cnc2ccccc21)C1CCCCC1 | 0.045 mg/mL (≈ 137 µM) |
| COC(=O)CN1CCN(C(=O)c2ccco2)CC1 | > 0.0378 mg/mL |

| Compound | solubility kinetic |
| --- | --- |
| CC(OC(=O)CCc1c[nH]c2ccccc12)C(=O)c1ccccc1 (centres undefined) | 0.0127 mg/mL (≈ 39.5 µM) |
| COc1ccccc1CC(=O)N1CCOCC1 | 0.0346 mg/mL (≈ 147 µM) |
| O=C(CCC(=O)c1ccccc1)NCc1ccccc1 | > 0.0401 mg/mL |
| N#C/C(=C\c1ccccc1)C(=O)NC1CC1 | > 0.0318 mg/mL |
| Cc1cc(NS(C)(=O)=O)c(=O)n(Cc2cccc(F)c2)c1 | > 0.0466 mg/mL |
| O=C(Nc1ccccc1Cl)OC1CCCCC1 | < 0.0005 mg/mL |
| CC(=O)Nc1ccc(N2C(=O)CC(Sc3nccc(C)n3)C2=O)cc1 (centres undefined) | > 0.0535 mg/mL |
| Cl.Fc1ccc(OCCCCN2CCOCC2)cc1 | > 0.0435 mg/mL |
| O=C(NCCN1CCOCC1)c1ccc(Cl)nc1 | > 0.0405 mg/mL |
| O=C(O)C(NS(=O)(=O)c1cccc2nsnc12)c1ccccc1 (centres undefined) | 0.0484 mg/mL (≈ 139 µM) |
| CN(C)C(=O)N(CCCN1CCOCC1)Cc1cccc2ccccc12 | > 0.0533 mg/mL |
| Cc1cc(OC(F)F)ccc1NC(=O)Nc1ccc2c(c1)OCO2 | < 0.0004 mg/mL |
| CCOc1cc(C2NC(=O)NC2=O)ccc1O (centres undefined) | > 0.0354 mg/mL |
| CN(C)CCN1C(=O)NC(C)(c2ccc([N+](=O)[O-])cc2)C1=O (centres undefined) | > 0.0459 mg/mL |
| CC(O)CNCCOc1ccccc1-c1ccccc1.O=C(O)C(=O)O (centres undefined) | > 0.0542 mg/mL |
| Cc1ccc(C)c(NC(=O)c2ccc3nccnc3c2)c1 | 0.0064 mg/mL (≈ 23.1 µM) |
| CCCCS(=O)(=O)N1CCCC(C(=O)N2CCOCC2)C1 (centres undefined) | 0.0424 mg/mL (≈ 133 µM) |
| O=C1CCC([N+](=O)[O-])C(C2CC=CCC2)N1 (centres undefined) | > 0.0336 mg/mL |
| Cl.c1cncc(CNCCc2c[nH]c3ccccc23)c1 | 0.0385 mg/mL |
| Cc1ccc2[nH]c(=O)c(COC(=O)C3CCCCC3)cc2c1 | 0.0029 mg/mL (≈ 9.69 µM) |
| CCN=c1sc(C(=O)Nc2ccccc2)c(C)n1CC | 0.043 mg/mL (≈ 149 µM) |
| O=C(NCCOC(=O)c1ccc(F)cc1)c1ccc(F)cc1 | 0.0104 mg/mL (≈ 34.1 µM) |
| O=C(Nc1ccc2c(c1)CCC2)c1cccc(OC(F)F)c1 | 0.0102 mg/mL (≈ 33.6 µM) |

Reference: PubChem BioAssay AID1996
